Data taken from patent US10385113B2, “Engineered FGF compositions and methods of use thereof” (THE BOARD OF TRUSTEES OF THE UNIVERSITY OF ARKANSAS, priority 2016, dated 2019).

Key:
[1] = molecular target: T1, human FGF-1 (hFGF-1), wild type (wtFGF-1), SEQ ID NO: 2 (Homo sapiens, UniProt P05230); assay: Isothermal titration calorimetry (ITC) of wild-type FGF-1 with SOS; assay type: binding; settings: FIG. 10A
T1 construct: made in house
Protocol: (§1) For WT hFGF-1, and mutant proteins were in the cell and at a concentration of 0.05 mM in a buffer of 10 mM phosphate, 100 mM NaCl, 50 mM ammonium sulfate, pH 6.5. […] The data was analyzed using Origin scientific plotting software.
(§2) ITC is a method used to directly evaluate the affinity and enthalpy of binding reactions.

[2] = molecular target: T2, human FGF-1 (hFGF-1) mutant R136E, SEQ ID NO: 4 (Homo sapiens, UniProt P05230, R137E); assay: Isothermal titration calorimetry (ITC) of FGF-1 mutant R136E with SOS; assay type: binding; settings: 10 mM phosphate, 100 mM NaCl, 50 mM ammonium sulfate, pH 6.5, 25° C., FIG. 10C, read-out: dissociation constant (Kd)
T2 construct: made in house
T2 sequence (P05230 16-155 R137E): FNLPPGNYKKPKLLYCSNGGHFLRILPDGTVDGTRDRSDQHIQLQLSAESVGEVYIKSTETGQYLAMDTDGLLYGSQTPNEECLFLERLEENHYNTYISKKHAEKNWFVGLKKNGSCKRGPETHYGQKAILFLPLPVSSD
Protocol: as §1, §2

T1 sequence (P05230 16-155): as the sequence (P05230 16-155 R137E) above, with E122R counted along it

Kd ([1]; 10 mM phosphate, 100 mM NaCl, 50 mM ammonium sulfate, pH 6.5, 25° C., read-out: dissociation constant (Kd)): 2.6 µM | affinity to SOS (binding isotherm) ([1]; compared with R136E, result in words): strong affinity | Kd [2]: 72.4 µM
SMILES: O=S(=O)(O)OC[C@H]1O[C@@](COS(=O)(=O)O)(O[C@H]2O[C@H](COS(=O)(=O)O)[C@@H](OS(=O)(=O)O)[C@H](OS(=O)(=O)O)[C@H]2OS(=O)(=O)O)[C@@H](OS(=O)(=O)O)[C@@H]1OS(=O)(=O)O [SOS, sucrose octasulfate]
